Structures can show the parent of a compound that is named as a salt.
What was measured:
[1] = system: NK and perforin-mediated bone marrow rejection; assay: In vivo inhibition of perforin-mediated bone marrow rejection; set-up: species or system C57Bl/6 mice; settings: 120 mg/kg intra-peritoneal once daily day -2 to day +1; Balb/c bone marrow transplant; blood day +1
Description: In Vivo Inhibition of Perforin-Mediated Bone Marrow Rejection.
On day 0 mice received 12×106 Balb/c (CD45.2+) CFSE labelled bone marrow as well as 12×106 B6.PTP (CD45.1+) bone marrow. On day +1 blood was collected for in vivo cytotoxicity assays looking at the ratio of recipient (CD45.1+) versus donor cells (CFSE+) (FIG. 1). Results are illustrated in FIG. 2 as two experiments combined with n=6, 10, 10, 4 and 3/group. […] Statistically significant differences were calculated using two-tailed t tests between groups.

[2] = system: KHYG-1 NK cell-mediated lysis of K562 cells; assay: Inhibition of KHYG-1 NK cell-mediated lysis of K562 cells (51Cr release); assay type: cell-based; settings: K562 target cells, Effector:Target 2:1, 4 hours at 37° C., 20 µM
How it was run: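 KHYG-1 effector cells pretreated with compound (up to 20 µM) for 20 min at RT. 51Cr-labelled K562 targets were then added at effector:target 2:1 and incubated 4 h at 37 °C. 51Cr release was gamma-counted and expressed as % specific cytotoxicity.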

[3] = target: recombinant perforin (UniProt P10820); assay type: cell-based; settings: lysis of Jurkat T lymphoma cells by recombinant perforin, 0.1% BSA, 30 min pre-incubation, 4 hours at 37° C.; read-out: Jurkat IC50
Sequence of recombinant perforin (P10820 whole entry): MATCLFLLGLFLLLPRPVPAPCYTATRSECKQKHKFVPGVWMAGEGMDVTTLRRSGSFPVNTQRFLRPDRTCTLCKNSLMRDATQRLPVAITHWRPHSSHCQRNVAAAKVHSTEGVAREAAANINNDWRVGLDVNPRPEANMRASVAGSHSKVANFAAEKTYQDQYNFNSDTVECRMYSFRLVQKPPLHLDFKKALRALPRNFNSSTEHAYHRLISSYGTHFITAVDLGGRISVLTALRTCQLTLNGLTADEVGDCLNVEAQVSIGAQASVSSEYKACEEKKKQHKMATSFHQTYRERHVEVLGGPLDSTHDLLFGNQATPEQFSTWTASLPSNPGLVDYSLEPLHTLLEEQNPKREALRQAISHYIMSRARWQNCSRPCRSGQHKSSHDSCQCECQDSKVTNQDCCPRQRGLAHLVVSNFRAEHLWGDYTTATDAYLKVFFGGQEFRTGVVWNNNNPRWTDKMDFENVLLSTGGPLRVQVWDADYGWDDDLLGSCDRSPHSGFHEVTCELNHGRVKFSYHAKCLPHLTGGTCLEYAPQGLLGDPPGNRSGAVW
How it was run: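 Jurkat T lymphoma cells labelled with 51Cr for 1 h, washed, then exposed to recombinant perforin with compound in RPMI plus 0.1% BSA. Lysis measured as 51Cr release. IC50 from a concentration range run in triplicate.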

Structure (SMILES)	inhibition of NK and perforin-mediated bone marrow rejection [1]	Inhibition of KHYG-1 at 20 μM (%) ([2]; sodium salt)	Inhibition of KHYG-1 at 20 μM (%) [2] [%]	melting point [°C]	IC50 [3] [µM]
CN1Cc2cc(-c3ccc(-c4cncc(NS(=O)(=O)c5ccc(F)cc5F)c4)s3)ccc2C1=O [Compound 1.Na, 2,4-Difluoro-N-(5-(5-(2-methyl-1-oxoisoindolin-5-yl)thiophen-2-yl)pyridin-3-yl)benzenesulfonamide, sodium salt]	able to inhibit NK and perforin-mediated bone marrow rejection	48	–	–	–
CN1Cc2cc(-c3ccc(-c4ccc(OC(F)(F)F)c(NS(=O)(=O)c5ccccn5)c4)s3)ccc2C1=O [Compound 63, N-(5-(5-(2-Methyl-1-oxoisoindolin-5-yl)thiophen-2-yl)-2-(trifluoromethoxy)phenyl)pyridine-2-sulfonamide]	–	–	56.14 ± 9	200 to 201	> 20

— patent publication US9896443B2, “Perforin inhibiting benzenesulfonamide compounds, preparation and uses thereof” (Peter MacCallum Cancer Institute, priority 2012, dated 2018)
